Test results from patent publication US20050118204A1, “Methods for controlling membrane permeability of a membrane permeable substance and screening methods for a membrane permeable substance” (priority 2003, published 2005).

Columns and labels:
[1] = system: erythrocytes; assay: Influence of osmotic pressure on membrane permeation of Tat Peptide (48-60) into erythrocyte (Test Example 4); format: cell-based, sheep; details: 10 μM, 37° C, 10 minutes; hypotonic versus isotonic phosphate buffer solution
Description: 5 mL of preserved sheep blood (available from Japan Biomaterial Center Co., Ltd.) was placed in a tube, and after subjecting to centrifugal separation (4° C., 3,000 g, 3 min), the supernatant fluid was removed. 5 mL of physiological saline was added thereto, followed by lightly stirring, and then subjected to centrifugal separation (4° C., 3,000 g, 3 min). The same operation was repeated to obtain an erythrocyte pellet. 400 μL of an isotonic phosphate buffer solution was added to 400 μL of the erythrocyte pellet, and after stirring, the mixture was subjected to centrifugal separation (4° C., 3,000 g, 3 min), followed by removing the supernatant fluid. The same operation was repeated to obtain an erythrocyte pellet for evaluation. […] The solution in the Coulter Counter® is replaced by a hypotonic phosphate buffer solution (70% hypotonicity), and the diameter of the erythrocytes floating in the hypotonic phosphate buffer solution was measured in the same manner as in the case of the isotonic phosphate buffer solution. The diameter of the erythrocytes in a hypertonic phosphate buffer solution (130% hypertonicity) was also measured in the same manner. […]
An erythrocyte pellet for evaluation was prepared in the same manner as in Test Example 1. […] The supernatant fluid was measured for fluorescence intensity with a microplate reader or a spectrophotofluorometer. […]

[2] = system: dermal fibroblast; assay: Enhancing effect of incorporation of Arg oligomer using substance positively changing membrane curvature (Test Example 5); format: cell-based; details: Arg oligomer 1 μM, 10 minutes
Description: The enhancing effect of incorporation of an Arg oligomer was evaluated by using skin-related cells (dermal fibroblast). Dermal fibroblast (Fibrocell, produced by Kurabo Industries, Ltd.) was seeded on a 6-well plate in an amount of 3×10^4 (cell/well) and cultivated with D-MEM Culture Medium (Dulbecco's modified Eagle medium, containing 10% serum, penicillin: 50 U/mL, streptomycin: 50 μg/mL) for 2 days. After cultivating for 2 days, the culture medium was removed from the wells of the 6-well plate, and D-MEM Culture Medium adjusted to contain 1,3-butanediol in a concentration of 2.5, 5 or 10 mM was added. After incubating for 5 minutes (37° C., 5% CO2), an Arg oligomer was added to the respective plates to a concentration of 1 μM and incubated for 10 minutes. After 10 minutes, the culture medium was removed by suction, and the wells were rinsed twice with an isotonic phosphate buffer solution. 500 μL of 1% Triton X-100 was added to the respective wells, followed by shaking at room temperature under light shielding for 1 hour, to lyse the cells. After thoroughly stirring by pipetting, the contents of the respective cells were transferred by 200 μL to a 96-well black cell, and fluorescence of 535 nm was measured under excitation with a spectrophotofluorometer (microplate reader, Wallac 1420 ARVOsx) at 485 nm.

[3] = Phase change of cubic phase of lecithin/sodium cholate system on adding sucrose; format: physicochemical; details: cubic phase of 22.5% water, 50.4% phosphatidylcholine, 27.1% sodium cholate by weight at 25° C
Text: The suppressing effect of incorporation of an Arg oligomer was investigated upon adding sucrose as a permeation suppressing substance, which was disclosed as a substance negatively changing the membrane curvature in Biochimica et Biophysica Acta (BBA)—Biomembranes, vol. 1285, Issue 1, p. 109-122 (1996). The inventors confirmed that a cubic phase of lecithin/sodium cholate system was constituted by utilizing lecithin (phosphatidylcholine) as a major constitutional component of the phospholipid constituting a cell membrane, and the cubic phase was changed to a hexagonal phase by adding sucrose thereto (as described in Biochim. Biophys. Acta., vol. 125, p. 563-580 (1966)). The phase change was determined by a change of the shape observed by a polarization microscope, the presence or absence of polarization with a polarizing film (a lamellar phase and a hexagonal phase were viewed brightly owing to the polarization thereof, but a cubic phase is viewed darkly), or a difference in spectrum patterns obtained by small angle X-ray scattering. The cubic phase was formed by mixing 22.5% by weight of water, 50.4% by weight of phosphatidylcholine and 27.1% by weight of sodium cholate at 25° C. When sucrose was added to the cubic phase in a proportion of 3.5% by weight or more, the cubic phase was changed to a lamellar phase. […]

[4] = system: dermal fibroblast; assay: Suppressing effect of incorporation of Arg oligomer using substance negatively changing membrane curvature (Test Example 6); format: cell-based; details: Arg oligomer 1 μM, 10 minutes
Description: The suppressing effect of incorporation of an Arg oligomer was evaluated by using skin-related cells (dermal fibroblast). Dermal fibroblast (Fibrocell, produced by Kurabo Industries, Ltd.) was seeded on a 6-well plate in an amount of 3×10^4 (cell/well) and cultivated with D-MEM Culture Medium (Dulbecco's modified Eagle medium, containing 10% serum, penicillin: 50 U/mL, streptomycin: 50 μg/mL) for 2 days. After cultivating for 2 days, the culture medium was removed from the wells of the 6-well plate, and D-MEM Culture Medium adjusted to contain sucrose in a concentration of 2.5, 5 or 10 mM was added. After incubating for 5 minutes (37° C., 5% CO2), an Arg oligomer was added to the respective plates to a concentration of 1 μM and incubated for 10 minutes. After lapsing 10 minutes, the culture medium was removed by suction, and the contents of the wells were rinsed twice with an isotonic phosphate buffer solution. 500 μL of 1% Triton X-100 was added to the respective wells, followed by shaking at room temperature under light shielding for 1 hour, to lyse the cells. After thoroughly stirring by pipetting, the contents of the respective wells were transferred by 200 μL to a 96-well black cell, and fluorescence of 535 nm was measured under excitation with a spectrophotofluorometer (microplate reader, Wallac 1420 ARVOsx) at 485 nm. The addition of sucrose decreased the fluorescence intensity depending upon the concentration of sucrose by 8% with a sucrose concentration of 2.5 mM, 19% with 5 mM and 37% with 10 mM, in comparison to the case where no sucrose was added. According to the aforementioned experimentation, sucrose is a compound changing the membrane curvature to concave, and it is considered that the change of the membrane suppresses the membrane permeability of the Arg oligomer.

## rhodamine-GABA-GRKKRRQRRRPPQC-NH2.8CF3COOH [Tat Peptide]
[1]
  amount of the Tat Peptide which penetrated into the erythrocytes on lowering the osmotic pressure, by fluorescence intensity: increased

## N#C[S-].[Na+] [sodium thiocyanate]
[2]; 2.5 mM of added substance
  increase of fluorescence intensity (Arg oligomer incorporation) versus no addition: about 10%
[2]; 10 mM of added substance
  increase of fluorescence intensity (Arg oligomer incorporation) versus no addition: about 15%

## OC[C@H]1O[C@@](CO)(O[C@H]2O[C@H](CO)[C@@H](O)[C@H](O)[C@H]2O)[C@@H](O)[C@@H]1O [sucrose]
[3]
  proportion added at which the cubic phase was changed to a lamellar phase: ≥ 3.5 % by weight
[4]; sucrose 2.5 mM
  decrease of fluorescence intensity (Arg oligomer incorporation) versus no sucrose: 8%
[4]; sucrose 5 mM
  decrease of fluorescence intensity (Arg oligomer incorporation) versus no sucrose: 19%
[4]; sucrose 10 mM
  decrease of fluorescence intensity (Arg oligomer incorporation) versus no sucrose: 37%

## CC(O)CCO (centres unmarked) [1,3-butanediol]
[2]; 2.5 mM of added substance
  increase of fluorescence intensity (Arg oligomer incorporation) versus no addition: about 15%
